Drawing on US10208019B2, “GLP-1 receptor agonists and uses thereof” (Pfizer Inc., priority 2016, dated 2019), this text covers EC50 and Emax for 17 compounds.

For assay [1], the target named is human GLP-1R (Homo sapiens (Human), UniProt P43220, L260F). In words: CHO GLP-1R Clone C6—Assay 2: HTRF cAMP cell-based functional agonist assay (low GLP-1R density). The note with it: for EC50: CHO GLP-1R Clone C6, cAMP HTRF, geometric mean; for Emax: CHO GLP-1R Clone C6, relative to saturating concentration of full agonist GLP-1 (1 μM), arithmetic mean, read-out: Assay 2 Emax (%).

Assay [2] concerns the target human GLP-1R (Homo sapiens, UniProt P43220, G168S). In words: CHO GLP-1R Clone H6—Assay 1: HTRF cAMP cell-based functional agonist assay (high GLP-1R density). The note with it: for EC50: read-out: Assay 1 EC50, CHO GLP-1R Clone H6, cAMP HTRF, geometric mean; for Emax: read-out: Assay 1 Emax (%), CHO GLP-1R Clone H6, relative to saturating concentration of full agonist GLP-1 (1 μM), arithmetic mean. For orientation: In TR-FRET formats the signal depends on donor and acceptor labels being close together.

Chain of human GLP-1R (Homo sapiens, UniProt P43220, G168S) (P43220 24-463 G168S limits assumed): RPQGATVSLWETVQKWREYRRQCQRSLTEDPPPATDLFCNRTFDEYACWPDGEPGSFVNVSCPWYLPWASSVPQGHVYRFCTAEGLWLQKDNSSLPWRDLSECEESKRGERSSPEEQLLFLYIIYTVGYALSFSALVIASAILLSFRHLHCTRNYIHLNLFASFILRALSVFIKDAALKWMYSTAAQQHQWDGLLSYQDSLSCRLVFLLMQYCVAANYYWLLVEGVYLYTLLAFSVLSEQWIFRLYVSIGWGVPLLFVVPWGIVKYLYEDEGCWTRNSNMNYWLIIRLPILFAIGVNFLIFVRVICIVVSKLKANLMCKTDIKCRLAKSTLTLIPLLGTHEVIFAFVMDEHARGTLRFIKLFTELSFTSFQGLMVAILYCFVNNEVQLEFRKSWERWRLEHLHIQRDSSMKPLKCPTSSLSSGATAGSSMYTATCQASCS
Chain of human GLP-1R (Homo sapiens (Human), UniProt P43220, L260F) (P43220 24-463 L260F): as the sequence (P43220 24-463 G168S limits assumed) above, with S145G, L237F counted along it

By EC50 is commonly meant the concentration at which the effect is half-maximal. For orientation: Emax means the greatest response seen or fitted, relative to the assay's reference. On to `O=C(O)c1ccc2nc(CN3CCC(c4cccc(OCc5ccc(F)cc5F)n4)CC3)n(Cc3cnco3)c2c1` [Example 10A-44, 2-[(4-{6-[(2,4-difluorobenzyl)oxy]pyridin-2-yl}piperidin-1-yl)methyl]-1-(1,3-oxazol-5-ylmethyl)-1H-benzimidazole-6-carboxylic acid], for which, on human GLP-1R [1], a half-maximal effect (EC50) was put at 99 nM and the maximum response (Emax) was 81%. Moreover, on human GLP-1R [2], the EC50 was found to be 6 nM and the Emax is 73%.

In the case of `O=C(O)c1ccc2nc(CN3CCN(c4cccc(OCc5ccc(Cl)cc5F)n4)CC3)n(Cc3cnco3)c2c1` [Example 10A-45, 2-[(4-{6-[(4-chloro-2-fluorobenzyl)oxy]pyridin-2-yl}piperazin-1-yl)methyl]-1-(1,3-oxazol-5-ylmethyl)-1H-benzimidazole-6-carboxylic acid], on human GLP-1R [1], the midpoint of the response, the EC50, lay at 19 nM and the Emax came to 75%. Further, on human GLP-1R [2], the EC50 was determined as 1 nM and the Emax turned out to be 76%.

With `C[C@H]1CN(c2cccc(OCc3ccc(C#N)cc3F)n2)CCN1Cc1nc2ccc(C(=O)O)cc2n1C[C@@H]1CCO1` [Example 10A-47, 2-{[(2S)-4-{6-[(4-cyano-2-fluorobenzyl)oxy]pyridin-2-yl}-2-methylpiperazin-1-yl]methyl}-1-[(2S)-oxetan-2-ylmethyl]-1H-benzimidazole-6-carboxylic acid], at human GLP-1R [1], the EC50 stood at 4.4 nM and the Emax came out at 95%. For the same compound, on human GLP-1R [2], the EC50 was determined as 0.3 nM and the Emax is 80%.

Take `O=C(O)c1ccc2nc(CN3CCN(c4cccc(OCc5ccc(Cl)cc5F)n4)CC3)n(C[C@H]3CCO3)c2c1` [Example 10A-48]: at human GLP-1R [1], the EC50 amounted to 140 nM and the maximal effect (Emax) was 76%. On human GLP-1R [2], the 50% effective concentration (EC50) amounted to 8.6 nM and the Emax stood at 64%.

Consider `N#Cc1ccc(COc2nc(C3CCN(Cc4nc5ccc(C(=O)O)cc5n4C[C@@H]4CCO4)CC3)ccc2F)c(F)c1` [Example 10A-54, 2-[(4-{6-[(4-cyano-2-fluorobenzyl)oxy]-5-fluoropyridin-2-yl}piperidin-1-yl)methyl]-1-[(2S)-oxetan-2-ylmethyl]-1H-benzimidazole-6-carboxylic acid], for which the EC50 came out at 11 nM at human GLP-1R [1] and 0.71 nM at human GLP-1R [2]. Besides, the Emax was 100% at human GLP-1R [1] and 81% at human GLP-1R [2].

Turning to `N#Cc1ccc(COc2nc(C3CCN(Cc4nc5ccc(C(=O)O)cc5n4C[C@@H]4CCO4)CC3)ccc2F)cc1` [Example 10A-55, 2-[(4-{6-[(4-cyanobenzyl)oxy]-5-fluoropyridin-2-yl}piperidin-1-yl)methyl]-1-[(2S)-oxetan-2-ylmethyl]-1H-benzimidazole-6-carboxylic acid], at human GLP-1R [1], the concentration for a half-maximal effect (EC50) came out at 24 nM and the Emax stood at 98%. At human GLP-1R [2], the EC50 is 1.2 nM and the Emax was 84%.

As for `C[C@H]1CN(c2ccc(F)c(OCc3ccc(F)cc3F)n2)CCN1Cc1nc2ccc(C(=O)O)cc2n1C[C@@H]1CCO1` [Example 10A-56, 2-{[(2S)-4-{6-[(2,4-difluorobenzyl)oxy]-5-fluoropyridin-2-yl}-2-methylpiperazin-1-yl]methyl}-1-[(2S)-oxetan-2-ylmethyl]-1H-benzimidazole-6-carboxylic acid], on human GLP-1R [1], the 50% effective concentration (EC50) stood at 16 nM and the Emax turned out to be 86%. In addition, at human GLP-1R [2], the EC50 came out at 0.5 nM and the Emax amounted to 78%.

In the case of `C[C@H]1CN(c2ccc(F)c(OCc3ccc(F)cc3F)n2)CCN1Cc1nc2ccc(C(=O)O)cc2n1C[C@H]1CCO1` [Example 10A-57], on human GLP-1R [1], the half-maximal effective concentration (EC50) turned out to be 160 nM and the maximal response (Emax) amounted to 71%. At human GLP-1R [2], the EC50 was 9.4 nM and the maximal response (Emax) came to 69%.

Turning to `C[C@H]1CN(c2cccc(OCc3ccc(F)cc3F)n2)CCN1Cc1nc2ccc(C(=O)O)cc2n1C[C@@H]1CCO1` [Example 10A-58, 2-{[(2S)-4-{6-[(2,4-difluorobenzyl)oxy]pyridin-2-yl}-2-methylpiperazin-1-yl]methyl}-1-[(2S)-oxetan-2-ylmethyl]-1H-benzimidazole-6-carboxylic acid], the EC50 on human GLP-1R [1] was 8.5 nM; on human GLP-1R [2], 0.52 nM. For the same compound, the results for the Emax at human GLP-1R [1] and on human GLP-1R [2] were 78% and 70%, respectively.

Take `C[C@H]1CN(c2cccc(OCc3ccc(C#N)cc3F)n2)CCN1Cc1nc2ccc(C(=O)O)cc2n1C[C@H]1CCOC1` [Example 10A-59]: the EC50 at human GLP-1R [1] was found to be 84 nM; on human GLP-1R [2], 4.7 nM. Moreover, the Emax stood at 83% on human GLP-1R [1] and 71% on human GLP-1R [2].

Take `O=C(O)c1ccc2nc(CN3CCC(c4cccc(OCc5ccc(Cl)cc5F)n4)CC3)n([C@@H]3CCOC3)c2c1` [Example 10A-60]: at human GLP-1R [1], the 50% effective concentration (EC50) stood at 460 nM and the Emax amounted to 66%. In addition, at human GLP-1R [2], the EC50 was 31 nM and the maximum response (Emax) stood at 81%.

As to `N#Cc1ccc(COc2cccc(N3CCN(Cc4nc5ccc(C(=O)O)cc5n4Cc4cnco4)CC3)n2)c(F)c1` [Example 10A-61, 2-[(4-{6-[(4-cyano-2-fluorobenzyl)oxy]pyridin-2-yl}piperazin-1-yl)methyl]-1-(1,3-oxazol-5-ylmethyl)-1H-benzimidazole-6-carboxylic acid], at human GLP-1R [1], the EC50 amounted to 35 nM and the maximum response (Emax) worked out at 89%. Further, at human GLP-1R [2], the EC50 was 1.5 nM and the maximum response (Emax) came to 74%.

Regarding `CCn1nncc1Cn1c(CN2CCN(c3cccc(OCc4ccc(C#N)cc4F)n3)CC2)nc2ccc(C(=O)O)cc21` [Example 10A-62, 2-[(4-{6-[(4-cyano-2-fluorobenzyl)oxy]pyridin-2-yl}piperazin-1-yl)methyl]-1-[(1-ethyl-1H-1,2,3-triazol-5-yl)methyl]-1H-benzimidazole-6-carboxylic acid], the results for the EC50 at human GLP-1R [1] and on human GLP-1R [2] were 28 nM and 2.9 nM, respectively. The Emax amounted to 97% at human GLP-1R [1] and 96% at human GLP-1R [2].

With `CCn1cncc1Cn1c(CN2CCN(c3cccc(OCc4ccc(C#N)cc4F)n3)C[C@@H]2C)nc2ccc(C(=O)O)cc21` [Example 10A-63], on human GLP-1R [1], it took 11 nM to reach a half-maximal effect (EC50) and the maximal effect (Emax) is 110%. On human GLP-1R [2], the half-maximal effective concentration (EC50) is 0.58 nM and the Emax was found to be 86%.

In the case of `O=C(O)c1ccc2nc(CN3CCC(c4cccc(OCc5ccc(Cl)cc5F)n4)CC3)n(Cc3ccno3)c2c1` [Example 10A-64, 2-[(4-{6-[(4-chloro-2-fluorobenzyl)oxy]pyridin-2-yl}piperidin-1-yl)methyl]-1-(1,2-oxazol-5-ylmethyl)-1H-benzimidazole-6-carboxylic acid], the values for the concentration for a half-maximal effect (EC50) on human GLP-1R [1] and at human GLP-1R [2] were 32 nM and 2 nM, respectively. For the same compound, the Emax is 79% on human GLP-1R [1] and 82% at human GLP-1R [2].

Consider `N#Cc1ccc(COc2cccc(C3CCN(Cc4nc5ccc(C(=O)O)cc5n4Cc4ccon4)CC3)n2)c(F)c1` [Example 10A-65, 2-[(4-{6-[(4-cyano-2-fluorobenzyl)oxy]pyridin-2-yl}piperidin-1-yl)methyl]-1-(1,2-oxazol-3-ylmethyl)-1H-benzimidazole-6-carboxylic acid], for which, on human GLP-1R [1], the EC50 came out at 35 nM and the Emax came out at 78%. At human GLP-1R [2], the EC50 is 1.6 nM and the Emax was found to be 84%.

For the compound `CCn1cncc1Cn1c(CN2CCC(c3cccc(OCc4ccc(C#N)cc4F)n3)CC2)nc2ccc(C(=O)O)cc21` [Example 10A-66, 2-[(4-{6-[(4-cyano-2-fluorobenzyl)oxy]pyridin-2-yl}piperidin-1-yl)methyl]-1-[(1-ethyl-1H-imidazol-5-yl)methyl]-1H-benzimidazole-6-carboxylic acid], on human GLP-1R [1], the EC50 is 3.4 nM and the Emax came to 100%. Also, at human GLP-1R [2], the EC50 was determined as 0.39 nM and the Emax was determined as 84%.
